Data published in patent US10526309B2, “Pan-TAM inhibitors and Mer/Axl dual inhibitors” (The University of North Carolina at Chapel Hill, priority 2015, dated 2020).
Like-named read-outs stand apart in the source and are kept apart here.

Assays:
Assay type in all cases: biochemical
[1] = target: T1, Mer (Homo sapiens, UniProt Q12866); assay: Mer kinase inhibition IC50; conditions: read-out: Mer IC50
T1 sequence (Q12866 21-999): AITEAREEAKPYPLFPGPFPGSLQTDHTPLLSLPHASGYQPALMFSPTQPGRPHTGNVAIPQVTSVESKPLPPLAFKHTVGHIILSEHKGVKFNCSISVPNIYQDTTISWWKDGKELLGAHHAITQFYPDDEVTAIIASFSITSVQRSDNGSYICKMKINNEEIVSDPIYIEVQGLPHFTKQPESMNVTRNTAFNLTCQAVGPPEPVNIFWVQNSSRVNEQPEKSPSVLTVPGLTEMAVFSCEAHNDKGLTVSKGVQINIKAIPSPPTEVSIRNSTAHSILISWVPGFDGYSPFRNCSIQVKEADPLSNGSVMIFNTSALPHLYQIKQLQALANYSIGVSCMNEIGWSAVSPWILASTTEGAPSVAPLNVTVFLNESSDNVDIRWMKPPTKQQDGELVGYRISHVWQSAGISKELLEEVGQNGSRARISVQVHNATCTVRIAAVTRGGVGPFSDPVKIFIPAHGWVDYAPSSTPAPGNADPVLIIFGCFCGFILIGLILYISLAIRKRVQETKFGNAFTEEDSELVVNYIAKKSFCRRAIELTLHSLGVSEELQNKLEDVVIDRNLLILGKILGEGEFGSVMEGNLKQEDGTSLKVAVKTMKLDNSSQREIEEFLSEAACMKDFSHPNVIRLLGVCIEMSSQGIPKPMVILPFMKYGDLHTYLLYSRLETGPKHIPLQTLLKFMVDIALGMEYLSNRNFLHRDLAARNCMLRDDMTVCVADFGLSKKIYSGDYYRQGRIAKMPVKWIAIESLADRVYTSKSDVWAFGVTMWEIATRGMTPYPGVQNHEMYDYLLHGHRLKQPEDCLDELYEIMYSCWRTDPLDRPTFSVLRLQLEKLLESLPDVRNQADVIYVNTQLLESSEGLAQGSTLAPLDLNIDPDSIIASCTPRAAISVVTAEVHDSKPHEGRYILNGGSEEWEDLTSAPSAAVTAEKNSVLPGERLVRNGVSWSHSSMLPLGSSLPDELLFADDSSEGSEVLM

[2] = target: T2, Axl (Homo sapiens, UniProt P30530); assay: Axl kinase inhibition IC50
T2 sequence (P30530 26-894): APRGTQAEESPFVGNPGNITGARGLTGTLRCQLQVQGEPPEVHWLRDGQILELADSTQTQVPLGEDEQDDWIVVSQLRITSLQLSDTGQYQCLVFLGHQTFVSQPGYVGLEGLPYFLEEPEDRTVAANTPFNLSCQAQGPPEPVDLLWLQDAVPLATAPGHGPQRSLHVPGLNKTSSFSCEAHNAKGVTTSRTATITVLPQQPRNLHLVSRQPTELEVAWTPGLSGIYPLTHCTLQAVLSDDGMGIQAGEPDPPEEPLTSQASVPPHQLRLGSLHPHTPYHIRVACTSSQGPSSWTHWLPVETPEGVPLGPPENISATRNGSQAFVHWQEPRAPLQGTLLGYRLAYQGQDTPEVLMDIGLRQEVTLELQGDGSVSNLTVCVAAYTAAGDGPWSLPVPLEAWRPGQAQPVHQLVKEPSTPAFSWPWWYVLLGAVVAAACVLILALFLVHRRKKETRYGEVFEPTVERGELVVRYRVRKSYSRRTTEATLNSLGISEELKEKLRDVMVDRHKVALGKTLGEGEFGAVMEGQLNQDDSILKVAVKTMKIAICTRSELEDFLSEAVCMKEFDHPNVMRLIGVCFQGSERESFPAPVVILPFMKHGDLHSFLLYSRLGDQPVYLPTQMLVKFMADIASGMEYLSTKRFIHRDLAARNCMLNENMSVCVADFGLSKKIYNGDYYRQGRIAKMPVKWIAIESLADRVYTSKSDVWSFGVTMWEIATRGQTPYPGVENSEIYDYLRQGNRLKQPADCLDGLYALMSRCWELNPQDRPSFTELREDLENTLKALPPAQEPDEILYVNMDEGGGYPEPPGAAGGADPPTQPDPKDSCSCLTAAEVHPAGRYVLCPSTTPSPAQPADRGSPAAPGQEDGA

[3] = target: T3, Tyro3 (Homo sapiens, UniProt Q06418); assay: Tyro3 kinase inhibition IC50
T3 sequence (Q06418 41-890): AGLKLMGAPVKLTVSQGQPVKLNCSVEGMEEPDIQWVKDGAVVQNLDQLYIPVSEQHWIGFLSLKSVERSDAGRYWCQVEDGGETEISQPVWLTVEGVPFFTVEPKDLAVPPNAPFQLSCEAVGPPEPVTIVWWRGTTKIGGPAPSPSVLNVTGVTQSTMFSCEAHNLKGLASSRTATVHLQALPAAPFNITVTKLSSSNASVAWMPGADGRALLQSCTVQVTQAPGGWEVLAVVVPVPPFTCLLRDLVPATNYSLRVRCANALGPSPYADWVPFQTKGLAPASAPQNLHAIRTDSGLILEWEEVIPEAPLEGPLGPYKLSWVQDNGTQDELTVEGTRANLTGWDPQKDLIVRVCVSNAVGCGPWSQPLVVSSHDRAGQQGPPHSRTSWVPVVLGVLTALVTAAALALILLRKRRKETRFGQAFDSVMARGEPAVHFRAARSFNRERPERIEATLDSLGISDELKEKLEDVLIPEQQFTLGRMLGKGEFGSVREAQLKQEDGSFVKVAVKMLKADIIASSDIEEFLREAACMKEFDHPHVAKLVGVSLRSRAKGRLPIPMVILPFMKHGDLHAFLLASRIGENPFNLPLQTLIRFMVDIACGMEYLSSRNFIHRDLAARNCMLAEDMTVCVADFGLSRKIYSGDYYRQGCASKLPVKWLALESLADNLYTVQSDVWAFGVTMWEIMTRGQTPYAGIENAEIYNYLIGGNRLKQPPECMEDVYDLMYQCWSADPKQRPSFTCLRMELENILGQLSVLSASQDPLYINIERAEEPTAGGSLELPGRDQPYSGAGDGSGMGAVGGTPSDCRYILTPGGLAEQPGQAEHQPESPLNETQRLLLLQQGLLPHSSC

| SMILES | IC50 ([1]; Table 3) [nM] | IC50 ([2]; Table 3) [nM] | IC50 ([3]; Table 3, read-out: Tyro3 IC50) [nM] | IC50 ([1]; Table 2) [nM] | IC50 ([2]; Table 2) [nM] | IC50 ([3]; Table 2, read-out: Tyro3 IC50) [nM] | other results |
| --- | --- | --- | --- | --- | --- | --- | --- |
| Cc1cc(C#Cc2cc(NC(=O)C(C)C)ccn2)ccc1Nc1ncc(-c2ccc(CN3CCN(C)CC3)cc2)c(N[C@H]2CC[C@H](O)CC2)n1 [UNC4048A] | 10 to 100 | 100 to 1000 | 10 to 100 | – | – | – | – |
| CN1CCN(Cc2ccc(-c3cnc(Nc4ccc(C#Cc5cc(NC(=O)C6CCCCC6)ccn5)cc4)nc3N[C@H]3CC[C@H](O)CC3)cc2)CC1 [UNC3873A] | < 10 | 10 to 100 | 10 to 100 | – | – | – | – |
| COc1cccc(Oc2ccnc(C#Cc3ccc(Nc4ncc(-c5ccccn5)c(N[C@H]5CC[C@H](O)CC5)n4)cc3)c2)c1 [UNC4393A] | – | – | – | – | – | – | IC50 ([1]; Table 5): 1000 to 30000 nM; IC50 ([2]; Table 5): 1000 to 30000 nM; IC50 ([3]; Table 5, read-out: Tryo3 IC50): 1000 to 30000 nM |
| O[C@H]1CC[C@H](Nc2nc(Nc3ccc(C#Cc4cc(-c5ccncc5)ccn4)cc3)ncc2-c2ccccn2)CC1 [UNC4363A] | – | – | – | – | – | – | IC50 ([1]; Table 4): 10 to 100 nM; IC50 ([2]; Table 4): 1000 to 30000 nM; IC50 ([3]; Table 4, read-out: Tryo3 IC50): 100 to 1000 nM |
| O[C@H]1CC[C@H](Nc2nc(Nc3ccccc3)ncc2-c2ccccn2)CC1 [UNC3029A] | – | – | – | – | – | – | IC50 ([2]; Table 1): 100 to 1000 nM; IC50 ([3]; Table 1, read-out: Tyro3 IC50): < 10 nM |
| CN1CCN(Cc2ccc(-c3cnc(Nc4ccc(C#Cc5cc(NC(=O)c6ccccc6)ccn5)cc4)nc3N[C@H]3CC[C@H](O)CC3)cc2)CC1 [UNC3868A] | < 10 | 10 to 100 | 10 to 100 | – | – | – | – |
| CC(C)C(=O)Nc1ccnc(C#Cc2ccc(Nc3ncc(-c4ccc(CN5CCN(C)CC5)cc4)c(N[C@H]4CC[C@H](O)CC4)n3)cc2F)c1 [UNC4045A] | < 10 | < 10 | < 10 | – | – | – | – |
| CC(C)Oc1ccnc(C#Cc2ccc(Nc3ncc(-c4ccccn4)c(N[C@H]4CC[C@H](O)CC4)n3)cc2)c1 [UNC4394A] | – | – | – | – | – | – | IC50 ([1]; Table 5): 100 to 1000 nM; IC50 ([2]; Table 5): 100 to 1000 nM; IC50 ([3]; Table 5, read-out: Tryo3 IC50): 100 to 1000 nM |
| Cc1cc(Nc2ncc(-c3ccc(CN4CCN(C)CC4)cc3)c(N[C@H]3CC[C@H](O)CC3)n2)ccc1C#Cc1cc(NC(=O)C(C)C)ccn1 [UNC4044A] | < 10 | < 10 | < 10 | – | – | – | – |

The next lines start with results.

| IC50 ([1]; Table 3) [nM] | IC50 ([2]; Table 3) [nM] | IC50 ([3]; Table 3, read-out: Tyro3 IC50) [nM] | IC50 ([1]; Table 2) [nM] | IC50 ([2]; Table 2) [nM] | IC50 ([3]; Table 2, read-out: Tyro3 IC50) [nM] | SMILES | other results |
| --- | --- | --- | --- | --- | --- | --- | --- |
| – | – | – | 100 to 1000 | 1000 to 30000 | 100 to 1000 | O[C@H]1CC[C@H](Nc2nc(Nc3ccc(C4=CCCN(C5CCC5)C4)cc3)ncc2-c2ccccn2)CC1 [UNC5070A] | – |
| – | – | – | 100 to 1000 | 1000 to 30000 | 100 to 1000 | CC[C@H](N)C(=O)N1CC=C(c2ccc(Nc3ncc(-c4ccccn4)c(N[C@H]4CC[C@H](O)CC4)n3)cc2)CC1 [UNC4403A] | – |
| – | – | – | 10 to 100 | 100 to 1000 | 100 to 1000 | CC(C)Nc1nc(Nc2ccc(C3CCN(C)CC3)cc2)ncc1-c1ccccn1 [UNC5135A] | – |
| – | – | – | 10 to 100 | 100 to 1000 | 100 to 1000 | CN1CCC(N2CC=C(c3ccc(Nc4ncc(-c5ccccn5)c(N[C@H]5CC[C@H](O)CC5)n4)cc3)CC2)CC1 [UNC5052A] | – |
| – | – | – | 100 to 1000 | 1000 to 30000 | 100 to 1000 | O[C@H]1CC[C@H](Nc2nc(Nc3ccc(-c4cccnc4)cc3)ncc2-c2ccccn2)CC1 [UNC4435A] | – |
